Assay results from patent publication US8466089B2, “Pyrazole compounds, process for their production and herbicides containing them” (Ishihara Sangyo Kaisha, Ltd., priority 2008, dated 2013).

Assays:
Assay type in all cases: in vivo
[1] = test system: barnyardgrass (Echinochloa crus-galli L.); experiment: Test Example 1, foliar treatment in upland pots; conditions: 20th to 22nd day after application, visual, read-out: Growth inhibition rate (%) Barnyardgrass
corn (Zea mays L.) [2] = experiment: Test Example 1, foliar treatment in upland pots; conditions: 20th to 22nd day after application, visual, read-out: Growth inhibition rate (%) Corn
Outline: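 Compound applied to leaves of pot-grown corn (2.0–3.3 leaf), soybean (primary leaf to 0.3 leaf), rice (1.2–2.5 leaf) and green foxtail (1.5–3.0 leaf); carrier 500 L/ha water, 0.1 vol% spreader. Percent inhibition assessed visually after 20–22 days.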

[3] = test system: crabgrass (Digitaria sanguinalis L.); experiment: Test Example 1, foliar treatment in upland pots; conditions: 20th to 22nd day after application, visual, read-out: Growth inhibition rate (%) Crabgrass
[4] = test system: redroot pigweed (Amaranthus retroflexus L.); experiment: Test Example 1, foliar treatment in upland pots; conditions: 20th to 22nd day after application, visual, read-out: Growth inhibition rate (%) Redroot pigweed
[5] = test system: barnyardgrass (Echinochloa crus-galli L.); experiment: Test Example 2, soil application on the day after sowing; conditions: 21st to 22nd day after application, visual, read-out: Growth inhibition rate (%) Barnyardgrass
Outline: (§1)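 Soil treatment one day post-sowing in upland soil pots, active ingredient at prescribed amounts in 500 L/ha spray water; percent inhibition versus untreated scored visually on day 21–22.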

corn (Zea mays L.) [6] = experiment: as above; conditions: 21st to 22nd day after application, visual, read-out: Growth inhibition rate (%) Corn
Outline: as §1

[7] = test system: crabgrass (Digitaria sanquinalis L.); experiment: as above; conditions: 21st to 22nd day after application, visual, read-out: Growth inhibition rate (%) Crabgrass
Outline: as §1

[8] = test system: green foxtail (Setaria viridis L.); experiment: as above; conditions: 21st to 22nd day after application, visual, read-out: Growth inhibition rate (%) Green foxtail
Outline: as §1

[9] = test system: prickly sida (Sida spinosa L.); experiment: as above; conditions: 21st to 22nd day after application, visual, read-out: Growth inhibition rate (%) Prickly sida
Outline: as §1

[10] = test system: redroot pigweed (Amaranthus retroflexus L.); experiment: as above; conditions: 21st to 22nd day after application, visual, read-out: Growth inhibition rate (%) Redroot pigweed
Outline: as §1

rice (Oryza sativa L.) = experiment: as above; conditions: 21st to 22nd day after application, visual, read-out: Growth inhibition rate (%) Rice
Outline: as §1

[11] = test system: soybean (Glycine max Merr.); experiment: as above; conditions: 21st to 22nd day after application, visual, read-out: Growth inhibition rate (%) Soybean
Outline: as §1

[12] = test system: velvetleaf (Abutilon theophrasti MEDIC.); experiment: as above; conditions: 21st to 22nd day after application, visual, read-out: Growth inhibition rate (%) Velvetleaf
Outline: as §1

wheat (Triticum spp.) = experiment: as above; conditions: 21st to 22nd day after application, visual, read-out: Growth inhibition rate (%) Wheat
Outline: as §1

[13] = test system: rice (Oryza sativa L.) (var.: Nihonbare); experiment: Test Example 3, paddy field pot, transplanted rice; conditions: applied 4th day after transplantation, 20th to 23rd day after application, read-out: Growth inhibition rate (%) Rice
Outline: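 Weeds were sown or planted in flooded paddy-soil pots and treated in the water at 0.5-leaf or primary-leaf stage. Rice (Nihonbare), transplanted at two-leaf stage 3 cm deep, was treated on day 4. Diluted wettable powder or emulsifiable concentrate was used, and growth inhibition (0–100%) was scored visually at 13–17 days for weeds and 20–23 days for rice.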

Row | SMILES | inhibition at 7 g/ha [1] | inhibition at 7 g/ha (corn (Zea mays L.) [2]) | inhibition at 7 g/ha [3] | inhibition at 7 g/ha [4] | inhibition at 250 g/ha [5] | inhibition at 250 g/ha (corn (Zea mays L.) [6]) | inhibition at 250 g/ha [7] | inhibition at 250 g/ha [8] | inhibition at 250 g/ha [9] | inhibition at 250 g/ha [10] | inhibition at 250 g/ha (rice (Oryza sativa L.)) | inhibition at 250 g/ha [11] | inhibition at 250 g/ha [12] | inhibition at 250 g/ha (wheat (Triticum spp.)) | inhibition at 63 g/ha [13]
1 | COCCOc1c(S(C)(=O)=O)ccc(C(=O)c2c(C)nn(C)c2O)c1C [Compound No. 5-2, (5-Hydroxy-1,3-dimethyl-1H-pyrazol-4-yl)(3-(2-methoxyethoxy)-2-methyl-4-(methylsulfonyl)phenyl)ketone] | 90% | 0% | 90% | 90% | 10% | 0% | 100% | 60% | 0% | 90% | 10% | 20% | 70% | 0% | 20%
2 | CCc1nn(C)c(O)c1C(=O)c1ccc(S(C)(=O)=O)c(OCCOC)c1C [Compound No. 5-3, (5-Hydroxy-1-methyl-3-ethyl-1H-pyrazol-4-yl)(3-(2-methoxyethoxy)-2-methyl-4-(methylsulfonyl)phenyl)ketone] | 90% | 0% | 90% | 95% | 50% | 20% | 95% | 60% | 20% | 100% | 20% | 0% | 30% | 0% | 20%
3 | CCn1nc(C)c(C(=O)c2ccc(S(C)(=O)=O)c(OCCOC)c2C)c1O [Compound No. 6-1, (1-Ethyl-5-hydroxy-3-methyl-1H-pyrazol-4-yl)(3-(2-methoxyethoxy)-2-methyl-4-(methylsulfonyl)phenyl)ketone] | 10% | 0% | 50% | 60% | 100% | 0% | 100% | 98% | 80% | 100% | 100% | 60% | 80% | 20% | 40%
4 | CCCn1ncc(C(=O)c2ccc(S(C)(=O)=O)c(OCCOC)c2C)c1O [Compound No. 7-1, (5-Hydroxy-1-n-propyl-1H-pyrazol-4-yl)(3-(2-methoxyethoxy)-2-methyl-4-(methylsulfonyl)phenyl)ketone] | 60% | 0% | 70% | 70% | 98% | 0% | 100% | 90% | 80% | 100% | 98% | 20% | 95% | 40% | 20%
5 | COCCOc1c(S(C)(=O)=O)ccc(C(=O)c2cnn(C(C)C)c2O)c1C [Compound No. 8-1, (5-Hydroxy-1-isopropyl-1H-pyrazol-4-yl)(3-(2-methoxyethoxy)-2-methyl-4-(methylsulfonyl)phenyl)ketone] | 60% | 0% | 95% | 90% | 100% | 0% | 100% | 100% | 40% | 100% | 80% | 0% | 100% | 0% | 60%
